This passage reports solubility, IC50 and efflux ratio results from patent US20250268877A1 (BIOGEN MA INC., priority 2020, published 2025).

Series [1] can be described thus: Kinetic solubility assay (CLND), potassium phosphate buffer pH 6.8. Format: physicochemical. To be noted: potassium phosphate buffer, pH 6.8, aqueous buffer, kinetic from dmso stock, pH 6.8, 2% DMSO, 24 hours at ambient temperature.
From the text: • Inject filtrates into the nitrogen detector for quantification on Analiza's Automated Discovery Workstation (ADW). • Solubility results generated in μg/mL
The target in another series is IRAK4 (Homo sapiens (Human), UniProt Q9NWZ3). In words: IRAK4 2-hour 1 mM ATP Biochemical Assay (MesoScale Detection format). To be noted: 100 pM IRAK4, read-out: IRAK4 IC50.
The next series concerns the target MDR1 (Homo sapiens (Human), UniProt P08183). Put plainly: MDR1-MDCK assay (apparent permeability, efflux ratio). The conditions noted are these: human, MDCK-MDR1, 1 μM, read-out: MDR1-MDCK_Efflux Ratio. Type of series: in vitro ADME.

Values after ≈ are worked out from the molar mass of the structure shown.

IRAK4, sequence (Q9NWZ3 whole entry): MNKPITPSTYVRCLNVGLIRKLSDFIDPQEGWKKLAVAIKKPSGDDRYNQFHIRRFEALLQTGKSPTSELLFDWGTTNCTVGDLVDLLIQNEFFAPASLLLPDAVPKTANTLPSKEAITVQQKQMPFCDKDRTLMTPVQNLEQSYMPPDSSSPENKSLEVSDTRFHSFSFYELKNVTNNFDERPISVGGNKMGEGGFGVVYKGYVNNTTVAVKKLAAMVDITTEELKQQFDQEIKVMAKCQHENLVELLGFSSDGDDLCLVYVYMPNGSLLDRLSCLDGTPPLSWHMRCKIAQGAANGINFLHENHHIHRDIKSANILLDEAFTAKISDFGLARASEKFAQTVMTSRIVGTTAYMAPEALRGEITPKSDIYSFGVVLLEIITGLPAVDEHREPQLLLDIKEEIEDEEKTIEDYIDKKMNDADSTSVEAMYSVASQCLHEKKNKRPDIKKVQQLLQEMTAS
MDR1, sequence (P08183 whole entry): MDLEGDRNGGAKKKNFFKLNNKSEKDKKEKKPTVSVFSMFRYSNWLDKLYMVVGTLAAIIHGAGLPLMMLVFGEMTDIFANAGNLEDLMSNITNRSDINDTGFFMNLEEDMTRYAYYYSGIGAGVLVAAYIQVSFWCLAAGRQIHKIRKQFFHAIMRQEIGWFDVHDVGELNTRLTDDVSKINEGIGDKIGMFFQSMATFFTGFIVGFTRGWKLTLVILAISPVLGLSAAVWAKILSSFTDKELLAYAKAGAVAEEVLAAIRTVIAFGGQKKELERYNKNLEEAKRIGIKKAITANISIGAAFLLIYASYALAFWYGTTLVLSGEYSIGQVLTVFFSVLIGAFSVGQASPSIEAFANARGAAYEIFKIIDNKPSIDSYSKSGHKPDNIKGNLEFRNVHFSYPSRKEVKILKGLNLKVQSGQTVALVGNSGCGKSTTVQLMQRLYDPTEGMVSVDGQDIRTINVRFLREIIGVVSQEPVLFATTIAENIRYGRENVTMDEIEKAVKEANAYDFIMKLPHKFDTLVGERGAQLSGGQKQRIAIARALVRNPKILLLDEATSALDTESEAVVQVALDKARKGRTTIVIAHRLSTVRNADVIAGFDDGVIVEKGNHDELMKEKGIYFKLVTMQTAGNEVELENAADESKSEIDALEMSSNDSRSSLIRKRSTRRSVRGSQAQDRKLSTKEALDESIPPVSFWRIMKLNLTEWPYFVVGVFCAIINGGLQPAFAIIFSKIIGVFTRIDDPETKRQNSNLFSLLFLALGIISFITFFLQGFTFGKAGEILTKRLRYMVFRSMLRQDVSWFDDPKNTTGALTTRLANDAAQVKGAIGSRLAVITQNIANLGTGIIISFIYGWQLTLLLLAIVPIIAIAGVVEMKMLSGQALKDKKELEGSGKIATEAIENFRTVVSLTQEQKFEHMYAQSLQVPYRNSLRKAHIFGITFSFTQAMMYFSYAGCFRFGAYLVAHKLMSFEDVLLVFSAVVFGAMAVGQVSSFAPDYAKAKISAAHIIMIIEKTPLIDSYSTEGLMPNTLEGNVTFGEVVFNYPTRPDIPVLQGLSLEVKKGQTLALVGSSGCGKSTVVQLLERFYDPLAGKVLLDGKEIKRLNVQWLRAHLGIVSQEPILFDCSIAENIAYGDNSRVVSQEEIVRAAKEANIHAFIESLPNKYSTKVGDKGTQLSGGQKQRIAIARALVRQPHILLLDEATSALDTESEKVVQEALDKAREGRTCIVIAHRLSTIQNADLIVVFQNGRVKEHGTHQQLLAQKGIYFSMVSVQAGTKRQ

The solubility is the concentration that dissolves in the medium under given conditions. High values mean much dissolved substance, low ones little dissolved substance. What is called IC50 is the concentration needed to halve the response being measured. On to `CC12CC(n3cc4cc(C(=O)Nc5cccn([C@@H]6C[C@@H]6F)c5=O)c(OC5CCC5)nc4n3)(CO1)C2` (racemic) [Example 25, 6-cyclobutoxy-N-(1-(cis-2-fluorocyclopropyl)-2-oxo-1,2-dihydropyridin-3-yl)-2-(1-methyl-2-oxabicyclo[2.1.1]hexan-4-yl)-2H-pyrazolo[3,4-b]pyridine-5-carboxamide], for which the solubility at 24 h in series [1] is 29.2 µg/mL (≈ 60.9 µM). Besides, the IC50 on IRAK4 amounted to 0.3 nM. Moreover, the efflux ratio at 120 min, 1 μM at MDR1 came out at 2.71.
The compound `CC(C)Oc1nc2nn(C34COC(C)(C3)C4)cc2cc1C(=O)Nc1cccn([C@@H]2C[C@@H]2F)c1=O` (racemic) [Example 32, (rac)-Cis-N-(1-(2-fluorocyclopropyl)-2-oxo-1,2-dihydropyridin-3-yl)-6-isopropoxy-2-(1-methyl-2-oxabicyclo[2.1.1]hexan-4-yl)-2H-pyrazolo[3,4-b]pyridine-5-carboxamide] yielded a solubility at 24 h in series [1] of 16 µg/mL (≈ 34.2 µM). For the same compound, the efflux ratio at 120 min, 1 μM at MDR1 came to 4.18.
Consider `CC(C)Oc1cc2nn(C34COC(C)(C3)C4)cc2cc1C(=O)Nc1cccn([C@@H]2C[C@@H]2F)c1=O` (racemic) [Example 35, (racemic)-Cis-N-(1-(2-fluorocyclopropyl)-2-oxo-1,2-dihydropyridin-3-yl)-6-isopropoxy-2-(1-methyl-2-oxabicyclo[2.1.1]hexan-4-yl)-2H-indazole-5-carboxamide], for which the solubility at 24 h in series [1] came to 65.7 µg/mL (≈ 141 µM).
In turn, `CC(C)Oc1cc2nn(C34COC(C)(C3)C4)cc2cc1C(=O)Nc1cccn([C@@H]2C[C@H]2C)c1=O` (racemic) [Example 39, Racemic-(Trans)-6-isopropoxy-2-(1-methyl-2-oxabicyclo[2.1.1]hexan-4-yl)-N-(1-(2-methylcyclopropyl)-2-oxo-1,2-dihydropyridin-3-yl)-2H-indazole-5-carboxamide] had a solubility at 24 h in series [1] of 2.3 µg/mL (≈ 4.97 µM).
In series [1], `CC(C)Oc1nc2nn(C34COC(C)(C3)C4)cc2cc1C(=O)Nc1cccn(C2C[C@@H]2F)c1=O` (mixture of isomers) [Example 42, racemic-(Trans)-N-(1-(2-fluorocyclopropyl)-2-oxo-1,2-dihydropyridin-3-yl)-6-isopropoxy-2-(1-methyl-2-oxabicyclo[2.1.1]hexan-4-yl)-2H-pyrazolo[3,4-b]pyridine-5-carboxamide] showed a solubility at 24 h of 2.8 µg/mL (≈ 5.99 µM). The efflux ratio at 120 min, 1 μM at MDR1 amounted to 2.5.
Regarding `CC(C)Oc1nc2nn(C34COC(C)(C3)C4)cc2cc1C(=O)Nc1cccn([C@@H]2C[C@@H]2F)c1=O` (single isomer, unassigned) [Example 33], in series [1], the solubility at 24 h was found to be 6.6 µg/mL (≈ 14.1 µM). For the same compound, the efflux ratio at 120 min, 1 μM at MDR1 was found to be 4.15.
The like results for `CC(C)Oc1cc2nn(C34COC(C)(C3)C4)cc2cc1C(=O)Nc1cccn([C@@H]2C[C@@H]2F)c1=O` (single isomer, unassigned) [Example 36] were, in that order, 69.5 µg/mL (≈ 149 µM) and 2.96.
The compound `CC(C)Oc1cc2nn(C34COC(C)(C3)C4)cc2cc1C(=O)Nc1cccn([C@H]2C[C@H]2F)c1=O` (single isomer, unassigned) [Example 37] returned a solubility at 24 h in series [1] of 56 µg/mL (≈ 120 µM). For the same compound, the efflux ratio at 120 min, 1 μM on MDR1 was 2.71.
Compound `CC(C)Oc1nc2nn(C34COC(C)(C3)C4)cc2cc1C(=O)Nc1cccn([C@H]2C[C@@H]2F)c1=O` (single isomer, unassigned) [Example 43] gave a solubility at 24 h in series [1] of 1.8 µg/mL (≈ 3.85 µM). For the same compound, the efflux ratio at 120 min, 1 μM at MDR1 came to 1.82.
Take `CC(C)Oc1nc2nn(C34COC(C)(C3)C4)cc2cc1C(=O)Nc1cccn([C@@H]2C[C@H]2F)c1=O` (single isomer, unassigned) [Example 44]: in series [1], the solubility at 24 h is 1.9 µg/mL (≈ 4.06 µM). The efflux ratio at 120 min, 1 μM on MDR1 is 1.84.
For the compound `CC(C)Oc1cc2nn(C34COC(C)(C3)C4)cc2cc1C(=O)Nc1cccn([C@@H]2C[C@H]2F)c1=O` (single isomer, unassigned) [Example 54], in series [1], the solubility at 24 h was 66.5 µg/mL (≈ 143 µM). For the same compound, at MDR1, the efflux ratio at 120 min, 1 μM was determined as 1.77.
On to `CC12CC(n3cc4cc(C(=O)Nc5cccn(C6CC6)c5=O)c(OC5CCC5)cc4n3)(CO1)C2` [Example 1, 6-Cyclobutoxy-N-(1-cyclopropyl-2-oxo-1,2-dihydropyridin-3-yl)-2-(1-methyl-2-oxabicyclo[2.1.1]hexan-4-yl)-2H-indazole-5-carboxamide], for which the solubility at 24 h in series [1] is 71 µg/mL (≈ 154 µM). Further, the IC50 at IRAK4 was determined as 0.9 nM.
Consider `COCC12CC(n3cc4cc(C(=O)Nc5cccn([C@@H]6C[C@@H]6C)c5=O)c(OC(C)C)nc4n3)(CO1)C2` [Example 72, 6-isopropoxy-2-(1-(methoxymethyl)-2-oxabicyclo[2.1.1]hexan-4-yl)-N-(1-((1R,2S)-2-methylcyclopropyl)-2-oxo-1,2-dihydropyridin-3-yl)-2H-pyrazolo[3,4-b]pyridine-5-carboxamide], for which the IC50 at IRAK4 was found to be 27.4 nM. Moreover, the efflux ratio at 120 min, 1 μM at MDR1 was 2.69.
The like results for `COCC12CC(n3cc4cc(C(=O)Nc5cccn([C@@H]6C[C@@H]6C)c5=O)c(OC(C)C)cc4n3)(CO1)C2` [Example 73, 6-isopropoxy-2-(1-(methoxymethyl)-2-oxabicyclo[2.1.1]hexan-4-yl)-N-(1-((1R,2S)-2-methylcyclopropyl)-2-oxo-1,2-dihydropyridin-3-yl)-2H-indazole-5-carboxamide] were, in that order, 43.2 nM and 1.51.
For `CC(C)Oc1cc2nn(C34COC(C3)C4)cc2cc1C(=O)Nc1cccn([C@@H]2C[C@@H]2C)c1=O` [Example 74, 2-(2-oxabicyclo[2.1.1]hexan-4-yl)-6-isopropoxy-N-(1-((1R,2S)-2-methylcyclopropyl)-2-oxo-1,2-dihydropyridin-3-yl)-2H-indazole-5-carboxamide], the IC50 at IRAK4 was found to be 26.5 nM. On MDR1, the efflux ratio at 120 min, 1 μM worked out at 2.07.
For `CC(C)Oc1nc2nn(C34COC(C3)C4)cc2cc1C(=O)Nc1cccn([C@@H]2C[C@@H]2C)c1=O` [Example 75, 2-(2-oxabicyclo[2.1.1]hexan-4-yl)-6-isopropoxy-N-(1-((1R,2S)-2-methylcyclopropyl)-2-oxo-1,2-dihydropyridin-3-yl)-2H-pyrazolo[3,4-b]pyridine-5-carboxamide], the IC50 on IRAK4 came out at 36.9 nM. The efflux ratio at 120 min, 1 μM at MDR1 was found to be 3.63.
The compound `CC(C)Oc1nc2nn(C34COC(C)(C3)C4)cc2cc1C(=O)Nc1cccn([C@@H]2C[C@@H]2F)c1=O` [Example 83, N-(1-((1R,2S)-2-fluorocyclopropyl)-2-oxo-1,2-dihydropyridin-3-yl)-6-isopropoxy-2-(1-methyl-2-oxabicyclo[2.1.1]hexan-4-yl)-2H-pyrazolo[3,4-b]pyridine-5-carboxamide] yielded a solubility at 24 h in series [1] of 16.7 µg/mL (≈ 35.7 µM). The efflux ratio at 120 min, 1 μM on MDR1 turned out to be 4.48.
`CC(C)Oc1nc2nn(C34COC(C)(C3)C4)cc2cc1C(=O)Nc1cccn([C@H]2C[C@H]2F)c1=O` [Example 84, N-(1-((1S,2R)-2-fluorocyclopropyl)-2-oxo-1,2-dihydropyridin-3-yl)-6-isopropoxy-2-(1-methyl-2-oxabicyclo[2.1.1]hexan-4-yl)-2H-pyrazolo[3,4-b]pyridine-5-carboxamide]: the solubility at 24 h in series [1] is 15.8 µg/mL (≈ 33.8 µM). The efflux ratio at 120 min, 1 μM on MDR1 amounted to 3.06.
Compound `CC(C)Oc1cc2nn(C34COC(C)(C3)C4)cc2cc1C(=O)Nc1cccn([C@H]2C[C@H]2C)c1=O` [Example 96, 6-isopropoxy-2-(1-methyl-2-oxabicyclo[2.1.1]hexan-4-yl)-N-(1-((1S,2R)-2-methylcyclopropyl)-2-oxo-1,2-dihydropyridin-3-yl)-2H-indazole-5-carboxamide] had a solubility at 24 h in series [1] of 13.6 µg/mL (≈ 29.4 µM).
